In article PMC6628435, “Chemical Synthesis, Proper Folding, Nav Channel Selectivity Profile and Analgesic Properties of the Spider Peptide Phlotoxin 1” (Toxins, 2019):
Bridge positions count the residues as written; N and C are the ends. Peptide text beside a SMILES is read from it.

Target: T1, hNav1.7 (Homo sapiens, UniProt Q15858)
T1 construct: expressed in transfected cells
Experiment: Manual patch clamp, reversibility of block of hNav1.7 currents
Type: cell-based
Text: Following our initial screen for the selectivity of synthetic PhlTx1 and the discovery that Nav1.7 was the main target, we decided to further evaluate the activity of PhlTx1. We used a CHO mammalian cell line expressing the human Nav1.7 instead of Xenopus oocytes for the pharmacological evaluation. To this end, we used an automated patch-clamp system, the Nanion syncropatch 384PE, and a standardized robotic method from Beckmann to apply PhlTx1 in the recording chambers and collect the kinetic information of Nav1.7 current from a high number of Nav1.7-expressing cells. The syncropatch 384PE has the potential to record from 384 cells at a time. 100-ms pulses from −100 mV to −10 mV were applied at a frequency of 0.2 Hz and various concentrations of PhlTx1 were applied to the cells. An example of a Nav1.7 current recording is illustrated in Figure 6A along with the effect of 100 nM PhlTx1. It is of interest to note that current inhibition develops over time at this PhlTx1 concentration that is above 50% at the end of a 13-min application time. […] Note that the highest achievable inhibition was 85%–92% for the two most efficient concentrations (333 nM and 1 μM). The time constant of inhibition was concentration-dependent as expected and could be fitted with decreasing mono-exponentials with time constants of 253 s (33 nM, n = 4), 159 s (100 nM, n = 8), 97 s (333 nM, n = 6) and 36 s (1 μM, n = 8). […] Using a manual patch clamp, which is better suited to investigate current recovery from block than an automated patch clamp that requires several washing steps, we investigated the reversibility properties of a PhlTx1 block. […] After 16 min of washout of 100 nM PhlTx1, we observed a maximum of 32% recovery of the blocked current that occurred with a time constant of 303 s. Since Nav1.4 and Nav1.6 were the two most sensitive channels to the PhlTx1 block, we also performed dose-response curves for these two channels with the automated patch clamp system.
Figure 6 PhlTx1 inhibition of Nav1.7 channels expressed in a mammalian cell line. […]

T1 sequence (Q15858 whole entry): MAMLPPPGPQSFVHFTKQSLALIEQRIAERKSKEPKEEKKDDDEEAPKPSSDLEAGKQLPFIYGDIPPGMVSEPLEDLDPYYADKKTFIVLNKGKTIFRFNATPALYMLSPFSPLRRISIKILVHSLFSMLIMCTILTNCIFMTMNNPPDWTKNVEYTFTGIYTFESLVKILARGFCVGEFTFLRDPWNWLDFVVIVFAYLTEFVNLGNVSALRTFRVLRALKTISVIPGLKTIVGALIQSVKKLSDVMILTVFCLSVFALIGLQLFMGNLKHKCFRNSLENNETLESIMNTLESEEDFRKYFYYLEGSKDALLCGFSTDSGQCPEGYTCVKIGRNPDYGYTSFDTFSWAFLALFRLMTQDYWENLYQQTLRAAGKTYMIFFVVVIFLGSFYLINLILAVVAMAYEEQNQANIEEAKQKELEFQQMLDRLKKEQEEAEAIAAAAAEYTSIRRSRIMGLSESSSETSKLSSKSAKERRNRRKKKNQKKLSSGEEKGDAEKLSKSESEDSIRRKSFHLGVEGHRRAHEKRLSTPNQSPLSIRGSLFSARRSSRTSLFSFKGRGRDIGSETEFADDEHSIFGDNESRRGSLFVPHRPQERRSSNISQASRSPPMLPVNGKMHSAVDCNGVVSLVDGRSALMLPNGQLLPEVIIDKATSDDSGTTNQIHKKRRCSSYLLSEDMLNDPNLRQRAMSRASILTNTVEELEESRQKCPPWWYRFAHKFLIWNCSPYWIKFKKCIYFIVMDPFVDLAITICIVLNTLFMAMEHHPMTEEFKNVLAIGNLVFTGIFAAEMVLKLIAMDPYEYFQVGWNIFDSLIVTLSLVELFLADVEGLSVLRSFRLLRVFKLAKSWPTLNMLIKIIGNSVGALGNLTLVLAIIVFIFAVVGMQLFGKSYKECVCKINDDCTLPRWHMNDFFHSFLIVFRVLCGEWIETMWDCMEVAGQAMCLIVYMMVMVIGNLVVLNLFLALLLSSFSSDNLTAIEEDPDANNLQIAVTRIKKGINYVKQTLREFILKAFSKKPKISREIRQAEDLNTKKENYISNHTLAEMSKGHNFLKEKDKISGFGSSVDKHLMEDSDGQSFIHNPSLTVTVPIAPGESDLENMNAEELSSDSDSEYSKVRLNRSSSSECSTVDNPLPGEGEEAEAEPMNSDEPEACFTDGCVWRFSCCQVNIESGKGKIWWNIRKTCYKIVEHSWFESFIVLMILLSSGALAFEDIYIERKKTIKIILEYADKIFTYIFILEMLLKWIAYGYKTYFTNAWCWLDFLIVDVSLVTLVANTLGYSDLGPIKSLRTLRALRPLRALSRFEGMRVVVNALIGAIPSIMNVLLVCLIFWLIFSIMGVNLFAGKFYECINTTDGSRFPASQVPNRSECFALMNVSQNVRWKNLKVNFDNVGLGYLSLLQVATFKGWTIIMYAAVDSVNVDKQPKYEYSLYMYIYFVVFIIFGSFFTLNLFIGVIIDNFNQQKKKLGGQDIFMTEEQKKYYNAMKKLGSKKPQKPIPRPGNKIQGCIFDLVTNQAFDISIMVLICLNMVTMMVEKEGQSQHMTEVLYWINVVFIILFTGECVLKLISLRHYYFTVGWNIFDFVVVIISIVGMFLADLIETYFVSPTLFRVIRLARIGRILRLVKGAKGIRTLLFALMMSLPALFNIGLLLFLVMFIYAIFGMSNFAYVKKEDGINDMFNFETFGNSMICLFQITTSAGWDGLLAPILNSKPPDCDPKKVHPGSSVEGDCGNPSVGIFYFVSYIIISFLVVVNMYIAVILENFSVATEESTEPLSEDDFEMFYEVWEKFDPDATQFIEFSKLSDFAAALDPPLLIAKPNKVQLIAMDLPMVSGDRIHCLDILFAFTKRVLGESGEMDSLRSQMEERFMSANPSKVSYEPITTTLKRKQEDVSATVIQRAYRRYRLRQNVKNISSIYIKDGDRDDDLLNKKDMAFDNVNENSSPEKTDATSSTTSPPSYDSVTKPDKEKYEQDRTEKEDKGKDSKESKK

## CC(C)C[C@@H]1NC(=O)[C@@H](NC(=O)[C@H](C)N)CSSC[C@@H]2NC(=O)[C@@H]3CSSC[C@@H](C(=O)N[C@@H](CCCNC(=N)N)C(=O)N[C@@H](Cc4ccc(O)cc4)C(=O)N[C@@H](CCCCN)C(=O)N[C@@H](CC(C)C)C(=O)N[C@@H](Cc4ccccc4)C(=O)O)NC(=O)[C@H](Cc4c[nH]c5ccccc45)NC(=O)[C@@H]4CCCN4C(=O)[C@H](Cc4ccc(O)cc4)NC(=O)[C@H](CCCCN)NC(=O)[C@H](Cc4c[nH]c5ccccc45)NC(=O)[C@H](CCC(=O)O)NC(=O)[C@H](CSSC[C@H](NC(=O)[C@H](CO)NC(=O)[C@H](CC(=O)O)NC(=O)[C@H](Cc4c[nH]c5ccccc45)NC(=O)[C@H](CCC(N)=O)NC(=O)CNC1=O)C(=O)N[C@@H](CC(=O)O)C(=O)N1CCC[C@H]1C(=O)N[C@@H](CCCCN)C(=O)N[C@@H](C)C(=O)N[C@@H](CO)C(=O)N[C@@H](CCCCN)C(=O)N3)NC(=O)[C@H](C)NC(=O)[C@H](Cc1ccc(O)cc1)NC(=O)[C@H](CC(N)=O)NC(=O)[C@@H]1CCCN1C2=O [PhlTx1, Phlotoxin-1] (H-ACLGQWDSCDPKASKCCPNYACEWKYPWCRYKLF-OH; disulfide 2-17, 9-22, 16-29; N-terminus and C-terminus assumed)
  reversibility of block: partially and poorly reversible
After 16 min of washout of 100 nM PhlTx1, n = 5 cells
  maximum recovery of the blocked current: ≤ 32%
Washout of 100 nM PhlTx1, n = 5 cells
  time constant of recovery from block: 303 s
